# Laboratory results as given in publication PMC10716780, “The multistep oxidation of cholesterol to pregnenolone by human cytochrome P450 11A1 is highly processive” (The Journal of Biological Chemistry, 2023).
# “And” between values parts separate entries of the source, which are not always exact repeats. Identical values can stand only once.
# Target: T1, human P450 11A1 (Homo sapiens, UniProt P05108)
# T1 sequence (P05108 41-521 limits assumed): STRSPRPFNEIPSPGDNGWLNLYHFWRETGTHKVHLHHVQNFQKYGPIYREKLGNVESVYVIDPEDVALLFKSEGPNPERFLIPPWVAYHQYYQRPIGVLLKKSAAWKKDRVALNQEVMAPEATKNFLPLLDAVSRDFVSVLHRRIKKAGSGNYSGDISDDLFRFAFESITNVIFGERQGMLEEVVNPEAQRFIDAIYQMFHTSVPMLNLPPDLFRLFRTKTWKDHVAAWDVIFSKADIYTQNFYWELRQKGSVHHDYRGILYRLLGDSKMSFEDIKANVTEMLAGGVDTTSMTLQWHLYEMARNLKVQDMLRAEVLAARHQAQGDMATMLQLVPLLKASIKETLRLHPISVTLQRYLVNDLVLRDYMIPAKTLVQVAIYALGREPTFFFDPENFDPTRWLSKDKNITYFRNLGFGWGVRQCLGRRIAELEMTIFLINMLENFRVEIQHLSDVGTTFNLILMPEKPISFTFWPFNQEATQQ
# T1 sequence (P00257 59-186 partner): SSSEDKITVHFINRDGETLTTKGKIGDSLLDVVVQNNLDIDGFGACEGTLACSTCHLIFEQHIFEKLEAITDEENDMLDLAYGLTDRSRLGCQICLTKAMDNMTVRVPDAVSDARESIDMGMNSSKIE
# Assay: Fluorescence titration of Alexa 488-Adx with P450 11A1 ± cholesterol
# Type: binding
# Set-up: M A S T R S P R P F N E I P S P G D N; Met-Ala (N-terminal start residues in place of the transit peptide and Ile40) (N); made in house; host or cells: E. coli (P450 11A1 in C41(DE3); Adx and AdR in E. coli)
# Procedure: Because Adx has been reported to stimulate the binding of P450 11A1 to its substrates ([12], [44]), we examined whether the binding of detergent-free P450 11A1 to Adx is enhanced by cholesterol, utilizing our fluorescently-labeled Adx construct (Alexa 488-Adx) ([45]). A 1:1 M complex of P450 11A1 and cholesterol was gradually titrated into a solution containing Alexa 488-Adx (50 nM), and the quenching of Adx fluorescence was monitored over the course of the reaction.
# Figure 7 Effect of cholesterol on P450 11A1 binding to Adx.A, titration of P450 11A1 (0–400 nM) into Alexa 488-Adx (50 nM) gradually quenched the fluorophore and yielded a decrease in fluorescence output (between 500 and 600 nm). Spectra were collected after each addition of P450. B, normalized fluorescence (F/F0) of titrations of P450 11A1 with (▪, red) and without (•, black) cholesterol (equimolar). A 1:1 M complex of P450 and cholesterol was used as titrant, where indicated. […]
# A previously described Alexa Fluor 488-labeled Adx construct and experimental protocol were used ([45]) to perform the fluorescence titration of P450 11A1 with Adx. […] P450 11A1 was gradually titrated (0–0.4 μM) into the cuvette (to a maximum of 2% (v/v)), and spectra were recorded using an OLIS DM-45 spectrofluorometer (1.24 mm slit width) with fluorophore excitation at 493 nm and scanning emission spectra from 500 to 600 nm. […]
structure (smiles),measurement,setting,value
CC(C)CCC[C@@H](C)[C@H]1CC[C@H]2[C@@H]3CC=C4C[C@@H](O)CC[C@]4(C)[C@H]3CC[C@]12C [Cholesterol],stimulation of binding of P450 11A1 to Adx,equimolar cholesterol,~5 fold and ~4.5 fold
same,change in Gibbs free energy of Adx binding,from the 4.5-fold change in Kd,< 1 kcal/mol
